{"source": "patent US8993542B2", "about": "“Methods of treating viral infections” (priority 2008, dated 2015)", "key": {"[1]": {"test_system": "HIV-1IIIB", "assay": "Two-drug combination antiviral assay in CEM cells (CPE), MacSynergy II", "format": "cell-based"}, "[2]": {"test_system": "HIV", "assay": "microbe, parasite or virus in culture", "format": "cell-based"}, "[3]": {"details": "in combination with CMX157, CEM-SS cells, 95% confidence"}}}
{"compound": "Nc1nc(=O)n(C2CSC(CO)O2)cc1F", "note": "(stereo not drawn) [FTC, 2-hydroxymethyl-5-(5-fluorocytosin-1-yl)-1,3-oxathiolane]", "values": [{"measurement": "Antagonism Volume, Result 1", "setting": "[1]; [3]", "value": "0 nM^2 %, μM^2 % or nMμM %"}, {"measurement": "Antagonism Volume, Result 2", "setting": "[1]; [3]", "value": "0 nM^2 %, μM^2 % or nMμM %"}, {"measurement": "Antagonism Volume, Result 3", "setting": "[1]; [3]", "value": "0 nM^2 %, μM^2 % or nMμM %"}, {"measurement": "Mean Antagonism Volume (n = 3)", "setting": "[1]; [3]", "value": "0 nM^2 %, μM^2 % or nMμM %"}, {"measurement": "Mean Synergy Volume (n = 3)", "setting": "[1]; [3]", "value": "72.5 nM^2 %, μM^2 % or nMμM %"}, {"measurement": "Synergy Volume, Result 1", "setting": "[1]; [3]", "value": "61.5 nM^2 %, μM^2 % or nMμM %"}, {"measurement": "Synergy Volume, Result 2", "setting": "[1]; [3]", "value": "72.0 nM^2 %, μM^2 % or nMμM %"}, {"measurement": "Synergy Volume, Result 3", "setting": "[1]; [3]", "value": "84.1 nM^2 %, μM^2 % or nMμM %"}, {"measurement": "Interpretation of Antiviral Results (MacSynergy)", "setting": "[1]; two-drug combination (with CMX157; control d4T/RBV), CEM-SS cells, listed as emtricitabine", "value": "slightly synergistic"}, {"measurement": "IC50", "setting": "[2]; Human immunodeficiency virus 1, PANEL 1, WT", "value": 0.89, "unit": "µM"}, {"measurement": "IC50", "setting": "[2]; Human immunodeficiency virus 1, PANEL 2, WT", "value": 1.57, "unit": "µM"}, {"measurement": "IC50", "setting": "[2]; Human immunodeficiency virus 1, PANEL 3, 6 TAMs, no 184", "value": 5.73, "unit": "µM"}, {"measurement": "IC50", "setting": "[2]; Human immunodeficiency virus 1, PANEL 6, 6 TAMs + 184", "value": "> 100", "unit": "µM"}, {"measurement": "IC50", "setting": "[2]; Human immunodeficiency virus 1, PANEL 7, 184V", "value": "> 100", "unit": "µM"}, {"measurement": "IC50", "setting": "[2]; Human immunodeficiency virus 1, PANEL 9, 69ins, no 184", "value": 29.6, "unit": "µM"}, {"measurement": "IC50", "setting": "[2]; Human immunodeficiency virus 1, PANEL 12, 69ins + 184", "value": "> 100", "unit": "µM"}, {"measurement": "IC50", "setting": "[2]; Human immunodeficiency virus 1, PANEL 14, 65R, no 184", "value": 19.3, "unit": "µM"}, {"measurement": "IC50", "setting": "[2]; Human immunodeficiency virus 1, PANEL 15, 65R + 184V", "value": "> 100", "unit": "µM"}, {"measurement": "IC50", "setting": "[2]; Human immunodeficiency virus 1, PANEL 17, L74V", "value": 2.14, "unit": "µM"}, {"measurement": "IC50", "setting": "[2]; Human immunodeficiency virus 1, PANEL 19, L74V + M184V", "value": "> 100", "unit": "µM"}, {"measurement": "IC50", "setting": "[2]; Human immunodeficiency virus 1, PANEL 26, 151M, no 184", "value": 34.7, "unit": "µM"}, {"measurement": "IC50", "setting": "[2]; Human immunodeficiency virus 1, PANEL 28, 151M + 184", "value": "> 100", "unit": "µM"}, {"measurement": "IC50", "setting": "[2]; Human immunodeficiency virus 1, PANEL 29, L74V − SDM", "value": 1.68, "unit": "µM"}, {"measurement": "IC50", "setting": "[2]; Human immunodeficiency virus 1, PANEL 30, M184V − SDM", "value": "> 100", "unit": "µM"}, {"measurement": "IC50", "setting": "[2]; Human immunodeficiency virus 1, PANEL 31, K65R − SDM", "value": 12.9, "unit": "µM"}, {"measurement": "IC50", "setting": "[2]; Human immunodeficiency virus 1, PANEL 33, T215Y", "value": 2.64, "unit": "µM"}, {"measurement": "IC50", "setting": "[2]; Human immunodeficiency virus 1, PANEL 34, T215Y + M184V", "value": "> 100", "unit": "µM"}, {"measurement": "IC50", "setting": "[2]; Human immunodeficiency virus 1, PANEL 35, M41L + T215Y", "value": 3.13, "unit": "µM"}, {"measurement": "IC50", "setting": "[2]; Human immunodeficiency virus 1, PANEL 37, M41L + T215Y + M184V", "value": "> 100", "unit": "µM"}, {"measurement": "IC50", "setting": "[2]; Human immunodeficiency virus 1, PANEL 38, M41L + L210W + T215Y", "value": 4.22, "unit": "µM"}, {"measurement": "IC50", "setting": "[2]; Human immunodeficiency virus 1, PANEL 39, M41L + L210W + T215Y", "value": 2.16, "unit": "µM"}, {"measurement": "IC50", "setting": "[2]; Human immunodeficiency virus 1, PANEL 40, M41L + L210W + T215Y + M184V", "value": "> 100", "unit": "µM"}, {"measurement": "IC50", "setting": "[2]; Human immunodeficiency virus 1, PANEL 41, M41L + L210W + T215Y + M184V", "value": "> 100", "unit": "µM"}, {"measurement": "IC50", "setting": "[2]; Human immunodeficiency virus 1, PANEL 42, D67N + K70R", "value": 3.28, "unit": "µM"}, {"measurement": "IC50", "setting": "[2]; Human immunodeficiency virus 1, PANEL 44, D67N + K70R + T215F + K219E + M184V", "value": "> 100", "unit": "µM"}, {"measurement": "IC50", "setting": "[2]; Human immunodeficiency virus 1, PANEL 45, L210W + T215Y", "value": 2.62, "unit": "µM"}, {"measurement": "IC50", "setting": "[2]; Human immunodeficiency virus 1, PANEL 46, D67N + K70E", "value": 3.39, "unit": "µM"}, {"measurement": "IC50", "setting": "[2]; Human immunodeficiency virus 1, PANEL 47, D67N + K70E + M184V", "value": "> 100", "unit": "µM"}, {"measurement": "IC50", "setting": "[2]; Human immunodeficiency virus 1, PANEL 48, K70E + M184V", "value": "> 100", "unit": "µM"}, {"measurement": "IC50 Fold Change", "setting": "[2]; PANEL 1, WT", "value": 0.78}, {"measurement": "IC50 Fold Change", "setting": "[2]; PANEL 2, WT", "value": 1.38}, {"measurement": "IC50 Fold Change", "setting": "[2]; PANEL 3, 6 TAMs, no 184", "value": 5.02}, {"measurement": "IC50 Fold Change", "setting": "[2]; PANEL 6, 6 TAMs + 184", "value": ">87.6048"}, {"measurement": "IC50 Fold Change", "setting": "[2]; PANEL 7, 184V", "value": ">87.6048"}, {"measurement": "IC50 Fold Change", "setting": "[2]; PANEL 9, 69ins, no 184", "value": 26.00}, {"measurement": "IC50 Fold Change", "setting": "[2]; PANEL 12, 69ins + 184", "value": ">87.6048"}, {"measurement": "IC50 Fold Change", "setting": "[2]; PANEL 14, 65R, no 184", "value": 17.00}, {"measurement": "IC50 Fold Change", "setting": "[2]; PANEL 15, 65R + 184V", "value": ">87.6048"}, {"measurement": "IC50 Fold Change", "setting": "[2]; PANEL 17, L74V", "value": 1.87}, {"measurement": "IC50 Fold Change", "setting": "[2]; PANEL 19, L74V + M184V", "value": ">87.6048"}, {"measurement": "IC50 Fold Change", "setting": "[2]; PANEL 26, 151M, no 184", "value": 30.00}, {"measurement": "IC50 Fold Change", "setting": "[2]; PANEL 28, 151M + 184", "value": ">87.6048"}, {"measurement": "IC50 Fold Change", "setting": "[2]; PANEL 29, L74V − SDM", "value": 1.47}, {"measurement": "IC50 Fold Change", "setting": "[2]; PANEL 30, M184V − SDM", "value": ">87.6048"}, {"measurement": "IC50 Fold Change", "setting": "[2]; PANEL 31, K65R − SDM", "value": 11.00}, {"measurement": "IC50 Fold Change", "setting": "[2]; PANEL 33, T215Y", "value": 2.31}, {"measurement": "IC50 Fold Change", "setting": "[2]; PANEL 34, T215Y + M184V", "value": ">87.6048"}, {"measurement": "IC50 Fold Change", "setting": "[2]; PANEL 35, M41L + T215Y", "value": 2.74}, {"measurement": "IC50 Fold Change", "setting": "[2]; PANEL 37, M41L + T215Y + M184V", "value": ">87.6048"}, {"measurement": "IC50 Fold Change", "setting": "[2]; PANEL 38, M41L + L210W + T215Y", "value": 3.70}, {"measurement": "IC50 Fold Change", "setting": "[2]; PANEL 39, M41L + L210W + T215Y", "value": 1.89}, {"measurement": "IC50 Fold Change", "setting": "[2]; PANEL 40, M41L + L210W + T215Y + M184V", "value": ">87.6048"}, {"measurement": "IC50 Fold Change", "setting": "[2]; PANEL 41, M41L + L210W + T215Y + M184V", "value": ">87.6048"}, {"measurement": "IC50 Fold Change", "setting": "[2]; PANEL 42, D67N + K70R", "value": 2.87}, {"measurement": "IC50 Fold Change", "setting": "[2]; PANEL 44, D67N + K70R + T215F + K219E + M184V", "value": ">87.6048"}, {"measurement": "IC50 Fold Change", "setting": "[2]; PANEL 45, L210W + T215Y", "value": 2.29}, {"measurement": "IC50 Fold Change", "setting": "[2]; PANEL 46, D67N + K70E", "value": 2.97}, {"measurement": "IC50 Fold Change", "setting": "[2]; PANEL 47, D67N + K70E + M184V", "value": ">87.6048"}, {"measurement": "IC50 Fold Change", "setting": "[2]; PANEL 48, K70E + M184V", "value": ">87.6048"}]}
